Activity calls are given as the source filed them. The rule behind the calls is not given here.
How the values were obtained:
RNA demethylase ALKBH5 = RNA demethylase ALKBH5 (Homo sapiens, UniProt Q6P6C2, R277A/Y139A); assay: Binding affinity to NT-647-NHS fluorescent dye-labeled ALKBH5 Y139A/R277A mutant (unknown origin) expressed in Escherichia coli BL21(DE3) using m6A-ssDNA as substrate assessed as dissociation constant incubated for 15 mins by MST assay
[1] = target: Alpha-ketoglutarate-dependent dioxygenase FTO (Homo sapiens, UniProt Q9C0B1); assay: Inhibition of FTO (32 to 505 residues)(unknown origin) expressed in Escherichia coli BL21(DE3) using 5'-TAGACATTGCCATTCTCGATAGG(m6A)-TCCGGTCAAACCTAGACGAATTCCA-3' as substrate at 100 uM incubated for 2 hrs by restriction endonuclease digestion assay
MOLM-13 [2] = assay: Induction of apoptosis in human MOLM-13 cells assessed as early apoptosis cells at 5 uM incubated for 48 hrs by Annexin V-FITC/PI staining based flow cytometry (reference value: 2.72 %); type: functional
MOLM-13 [3] = assay: Downregulation of c-Myc level in human MOLM-13 cells upto 10 uM incubated for 48 hrs by Western blot analysis; type: functional, cell-based
[4] = Cmax in Sprague-Dawley rat at 2 mg/kg, iv measured for 1 to 1440 mins by LC-MS/MS analysis; type: ADME, organism-based; conditions: in vivo
[5] = AUC (0 to infinity) in Sprague-Dawley rat at 2 mg/kg, iv measured for 1 to 1440 mins by LC-MS/MS analysis; type: ADME, organism-based; conditions: in vivo
[6] = AUC (0 to infinity) in Sprague-Dawley rat at 10 mg/kg, po measured for 1 to 1440 mins by LC-MS/MS analysis; type: ADME, organism-based; conditions: in vivo
MV4-11 = assay: Antitumor activity against human MV4-11 cells xenografted in nude mouse assessed as tumor growth inhibition at 10 mg/kg, ip treated every day for 14 days relative to control; type: functional; conditions: MV4-11, 336 h, time 14 day, read-out: TGI

Alpha-ketoglutarate-dependent dioxygenase FTO, sequence (Q9C0B1 whole entry, looked up, the tested form may be a part): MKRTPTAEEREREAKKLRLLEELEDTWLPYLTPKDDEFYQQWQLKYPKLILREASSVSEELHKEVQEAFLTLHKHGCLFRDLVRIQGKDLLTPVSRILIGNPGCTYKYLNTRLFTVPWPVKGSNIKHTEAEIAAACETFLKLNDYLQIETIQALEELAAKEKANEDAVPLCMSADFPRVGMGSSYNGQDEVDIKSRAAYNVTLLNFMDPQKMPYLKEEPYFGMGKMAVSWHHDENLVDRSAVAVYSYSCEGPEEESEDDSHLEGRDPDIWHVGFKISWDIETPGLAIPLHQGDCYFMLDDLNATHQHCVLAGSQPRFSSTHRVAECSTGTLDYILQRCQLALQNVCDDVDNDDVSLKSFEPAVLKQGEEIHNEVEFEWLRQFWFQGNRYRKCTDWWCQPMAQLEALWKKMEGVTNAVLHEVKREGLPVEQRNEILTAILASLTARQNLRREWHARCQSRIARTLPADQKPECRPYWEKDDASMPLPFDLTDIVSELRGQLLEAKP
RNA demethylase ALKBH5, sequence (Q6P6C2 2-394 Y139A/R277A limits assumed): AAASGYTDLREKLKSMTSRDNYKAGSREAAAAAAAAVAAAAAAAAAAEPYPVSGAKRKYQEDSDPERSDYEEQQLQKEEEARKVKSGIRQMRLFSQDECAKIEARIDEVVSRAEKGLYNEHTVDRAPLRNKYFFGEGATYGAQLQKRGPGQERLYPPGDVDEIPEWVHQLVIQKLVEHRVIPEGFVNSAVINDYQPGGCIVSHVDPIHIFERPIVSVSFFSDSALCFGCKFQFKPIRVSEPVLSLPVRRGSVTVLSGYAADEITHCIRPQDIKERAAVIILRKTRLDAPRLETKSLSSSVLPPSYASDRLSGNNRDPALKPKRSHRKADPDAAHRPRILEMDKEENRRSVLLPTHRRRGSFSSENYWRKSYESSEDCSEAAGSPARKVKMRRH

Kd (RNA demethylase ALKBH5): 15.8 µM
inhibition [1]: inactive
Cmax [4]: 13400 ng/mL
AUC(0-inf) [5]: 6740 ng·h/mL
AUC(0-inf) [6]: 5820 ng·h/mL
Structure (SMILES): O=C(OCc1ccc(C(F)(F)F)cc1)c1ccc(-c2cc3ncc(C(=O)c4c(O)ccc([N+](=O)[O-])c4O)cn3n2)cc1
Activity (MOLM-13 [2]): 2.91%
Activity (MOLM-13 [3]): Active
inhibition in vivo at 10 mg/kg (MV4-11): 56.3%

Reference: ChEMBL document CHEMBL5375956, “Discovery of Pyrazolo[1,5-a]pyrimidine Derivative as a Novel and Selective ALKBH5 Inhibitor for the Treatment of AML” (J Med Chem, 2023)
